{
  "source": "ChEMBL document CHEMBL1201862",
  "about": "“PubChem BioAssay data set” (2004)",
  "key": {"Streptokinase A": {"target": "T1, Streptokinase A (Streptococcus pyogenes serotype M1, UniProt P10520)", "T1 sequence (P10520 whole entry)": "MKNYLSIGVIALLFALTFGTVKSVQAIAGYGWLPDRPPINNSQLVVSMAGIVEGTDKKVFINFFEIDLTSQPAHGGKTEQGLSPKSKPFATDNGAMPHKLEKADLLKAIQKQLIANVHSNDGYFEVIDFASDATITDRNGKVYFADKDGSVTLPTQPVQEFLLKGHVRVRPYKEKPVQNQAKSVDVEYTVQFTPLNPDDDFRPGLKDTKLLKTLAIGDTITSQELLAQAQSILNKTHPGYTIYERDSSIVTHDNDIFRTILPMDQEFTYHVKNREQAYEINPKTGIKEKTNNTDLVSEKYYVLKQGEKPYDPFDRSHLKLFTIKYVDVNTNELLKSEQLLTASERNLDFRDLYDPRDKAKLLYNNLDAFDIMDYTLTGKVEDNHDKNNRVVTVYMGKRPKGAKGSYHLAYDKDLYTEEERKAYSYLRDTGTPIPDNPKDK", "assay": "S. pyogenes streptokinase expression inhibitors, potency, dose response, plasminogen activation absorbance, OD405 (AID 1914);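 also: secreted streptokinase activity via plasminogen activation per viability signal from cell pellet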", "format": "functional, Streptococcus pyogenes M1 GAS"}, "[1]": {"test_system": "Streptococcus sp. 'group A'", "assay": "growth inhibition of control SK(-) GAS strain, dose response, counter-screen for streptokinase expression inhibitor project, luminescence, kanamycin, BacTiterGlo, confirmation (AID 1900)", "format": "functional, organism-based"}, "[2]": {"assay": "cytotoxicity toward NIH3T3 fibroblasts, dose response, counter-screen, cell-based, ATP luminescence, mouse fibroblasts (AID 2010);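 also: cells exposed to compound for about 90 hours before reading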", "format": "functional"}, "[3]": {"target": "Photoreceptor-specific nuclear receptor (Homo sapiens, UniProt Q9Y5X4)", "sequence (Q9Y5X4 whole entry)": "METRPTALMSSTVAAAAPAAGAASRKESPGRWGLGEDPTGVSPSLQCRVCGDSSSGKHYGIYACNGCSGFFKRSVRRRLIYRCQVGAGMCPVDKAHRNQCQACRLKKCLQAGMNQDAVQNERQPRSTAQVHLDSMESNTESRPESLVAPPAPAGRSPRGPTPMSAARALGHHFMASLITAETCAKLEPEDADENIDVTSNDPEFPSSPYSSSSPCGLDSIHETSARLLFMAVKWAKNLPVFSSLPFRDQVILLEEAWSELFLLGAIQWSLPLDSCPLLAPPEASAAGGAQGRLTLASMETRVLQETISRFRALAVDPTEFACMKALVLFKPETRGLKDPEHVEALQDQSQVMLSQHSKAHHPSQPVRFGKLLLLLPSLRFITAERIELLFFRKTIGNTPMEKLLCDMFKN", "format": "functional, cell-based"}, "Streptococcus": {"test_system": "Streptococcus", "assay": "Group A Streptococcus viability loss, dose response, counter-screen for streptokinase expression inhibitor project, luminescence, BacTiterGlo (AID 1915);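 also: potency for reduction of bacterial viability or growth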", "format": "functional, organism-based"}, "[4]": {"assay": "inhibitors of intracellular T. cruzi replication, confirmation, NIH3T3 host cells, beta-gal luminescence (AID 2044);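 also: luminescent beta-galactosidase reporter signal from transgenic T. cruzi replicating inside host cells; inhibitors lower the luminescence signal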", "format": "functional, cell-based"}, "Protein S100-A4": {"target": "Protein S100-A4 (Homo sapiens, UniProt P26447)", "sequence (P26447 whole entry)": "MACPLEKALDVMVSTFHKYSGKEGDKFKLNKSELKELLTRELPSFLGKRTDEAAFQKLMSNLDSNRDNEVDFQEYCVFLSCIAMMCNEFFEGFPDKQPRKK", "assay": "S100A4-myosin IIA binding inhibitor potency, dose response, biochemical, fluorescence polarization, cherry-picked hits (AID 687001)", "format": "functional"}, "Troponin, cardiac muscle": {"target": "Troponin, cardiac muscle (Homo sapiens, UniProt P19429+P45379+P63316)", "assay": "Fluorescence-based biochemical high throughput dose response assay for activators of the calcium sensitivity of cardiac Regulated Thin Filaments (RTF). [Related pubchem assays (depositor defined):AID493008, AID493018, AID504382, AID504383]", "format": "protein-complex assay"}, "Interleukin-8": {"target": "Interleukin-8 (Homo sapiens, UniProt P10145)", "sequence (P10145 whole entry)": "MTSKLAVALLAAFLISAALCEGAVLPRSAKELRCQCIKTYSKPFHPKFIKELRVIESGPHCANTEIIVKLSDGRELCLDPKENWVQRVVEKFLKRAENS", "assay": "Dose Response confirmation of uHTS small molecule hits for cystic fibrosis induced NFkb Inhibitors in a PAF-induced IL8 counterscreen.", "format": "functional", "details": "read-out: IC50_Mean"}, "[5]": {"assay": "inhibitors of HIV Env-driven cell fusion, dose response, cherry-pick (AID 652057)", "format": "functional, cell-based"}, "[6]": {"assay": "off-target signal loss in HeLa-CEM21 co-culture – HeLa F-luc CTL cells, cherry-picked, counter-screen for HIV-1 Env fusion inhibitor project, dose response (AID 652040);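 also: potency for signal decrease marking cytotoxic or nonspecific inhibition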", "format": "functional, cell-based"}, "[7]": {"assay": "inhibitors of Bluetongue virus cytopathic effect, confirmation, arbovirus, BSR cells (AID 1250);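 also: protection from viral cytopathic effect measured as cell viability by ATP luminescence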", "format": "functional"}, "[8]": {"assay": "ZM109 Env clade C HIV-1 fusion inhibitors, dose response, HeLa effector, CEM target cells, luciferase, cherry-pick (AID 652058)", "format": "functional, cell-based"}, "HEK293": {"test_system": "HEK293", "assay": "inhibitors of LMP1-driven NF-kB reporter, dose response, cell-based, HEK293, luciferase, cherry-pick (AID 588343)", "format": "functional", "details": "Homo sapiens"}, "[9]": {"assay": "inhibitors of clade B AD8 Env fusion, dose response, cell-based, cherry-pick (AID 652062);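 also: potency is for inhibitors of fusion seen as a drop in luminescence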", "format": "functional"}, "[10]": {"assay": "CEM21 lymphoblast cell cytotoxicity, dose response, cytotoxicity control for viral fusion inhibitor project, CellTiter-Glo luminescence, cherry-picked (AID 652042);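 also: potency for signal decrease meaning cytotoxicity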", "format": "functional, cell-based"}, "[11]": {"target": "T2, Methionyl-tRNA synthetase, putative (Trypanosoma brucei brucei, UniProt Q38C91)", "T2 sequence (Q38C91 whole entry)": "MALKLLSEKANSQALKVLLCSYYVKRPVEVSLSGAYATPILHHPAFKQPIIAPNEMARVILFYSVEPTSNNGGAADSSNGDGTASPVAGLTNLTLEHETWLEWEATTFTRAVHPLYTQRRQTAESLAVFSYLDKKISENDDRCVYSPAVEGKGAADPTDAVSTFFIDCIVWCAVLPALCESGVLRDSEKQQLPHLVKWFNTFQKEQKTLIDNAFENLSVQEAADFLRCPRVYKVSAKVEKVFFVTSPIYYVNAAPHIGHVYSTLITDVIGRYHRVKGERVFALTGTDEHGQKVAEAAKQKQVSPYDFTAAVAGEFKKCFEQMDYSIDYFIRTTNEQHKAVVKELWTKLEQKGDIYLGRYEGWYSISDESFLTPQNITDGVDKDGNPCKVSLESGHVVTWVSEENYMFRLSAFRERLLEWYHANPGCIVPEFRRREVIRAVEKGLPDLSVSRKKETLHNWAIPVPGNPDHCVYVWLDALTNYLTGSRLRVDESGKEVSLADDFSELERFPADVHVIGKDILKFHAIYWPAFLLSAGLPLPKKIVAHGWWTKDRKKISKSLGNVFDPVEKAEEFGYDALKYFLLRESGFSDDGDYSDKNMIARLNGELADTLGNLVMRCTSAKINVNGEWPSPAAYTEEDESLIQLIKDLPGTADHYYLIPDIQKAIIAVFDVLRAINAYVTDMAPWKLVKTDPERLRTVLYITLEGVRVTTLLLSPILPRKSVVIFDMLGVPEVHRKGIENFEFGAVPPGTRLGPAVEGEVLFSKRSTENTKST", "format": "functional, Trypanosoma brucei brucei strain 927/4 GUTat10.1"}, "Coagulation factor XII": {"target": "T3, Coagulation factor XII (Homo sapiens, UniProt P00748)", "T3 sequence (P00748 whole entry)": "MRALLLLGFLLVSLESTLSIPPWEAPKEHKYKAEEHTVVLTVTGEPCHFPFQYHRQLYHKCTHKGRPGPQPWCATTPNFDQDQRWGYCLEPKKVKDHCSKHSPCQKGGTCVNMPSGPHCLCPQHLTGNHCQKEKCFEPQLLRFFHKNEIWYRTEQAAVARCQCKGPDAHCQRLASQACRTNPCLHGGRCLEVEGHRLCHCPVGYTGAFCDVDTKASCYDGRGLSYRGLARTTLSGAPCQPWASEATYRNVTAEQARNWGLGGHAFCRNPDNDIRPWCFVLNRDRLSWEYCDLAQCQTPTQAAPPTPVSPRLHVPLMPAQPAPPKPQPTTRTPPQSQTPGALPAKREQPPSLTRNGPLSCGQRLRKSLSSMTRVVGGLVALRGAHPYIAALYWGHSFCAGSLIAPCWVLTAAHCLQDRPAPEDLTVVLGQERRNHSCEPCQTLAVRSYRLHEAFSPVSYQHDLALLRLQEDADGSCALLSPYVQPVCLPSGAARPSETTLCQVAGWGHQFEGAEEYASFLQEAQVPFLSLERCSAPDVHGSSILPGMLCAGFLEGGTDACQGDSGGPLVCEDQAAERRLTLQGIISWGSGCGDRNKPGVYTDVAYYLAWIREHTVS", "format": "functional"}, "HeLa": {"test_system": "HeLa", "assay": "HeLa cell cytotoxicity, dose response, cytotoxicity control for MITF activator project, CellTiter-Glo luminescence, cherry-pick samples (AID 540259)", "format": "functional, cell-based", "details": "Homo sapiens"}, "[12]": {"target": "T2, Methionyl-tRNA synthetase, putative", "format": "functional, Trypanosoma brucei brucei strain 927/4 GUTat10.1", "remark": "listed apart in the source"}, "[13]": {"assay": "Counterscreen for inhibitors of Trypanosoma brucei methionyl tRNA synthetase (MetRS): Luminescence-based cell-based high throughput dose response assay to identify compounds that are cytotoxic to Jurkat human T lymphocyte cells.", "format": "functional"}, "[14]": {"target": "Aryl hydrocarbon receptor (Homo sapiens, UniProt P35869)", "sequence (P35869 whole entry)": "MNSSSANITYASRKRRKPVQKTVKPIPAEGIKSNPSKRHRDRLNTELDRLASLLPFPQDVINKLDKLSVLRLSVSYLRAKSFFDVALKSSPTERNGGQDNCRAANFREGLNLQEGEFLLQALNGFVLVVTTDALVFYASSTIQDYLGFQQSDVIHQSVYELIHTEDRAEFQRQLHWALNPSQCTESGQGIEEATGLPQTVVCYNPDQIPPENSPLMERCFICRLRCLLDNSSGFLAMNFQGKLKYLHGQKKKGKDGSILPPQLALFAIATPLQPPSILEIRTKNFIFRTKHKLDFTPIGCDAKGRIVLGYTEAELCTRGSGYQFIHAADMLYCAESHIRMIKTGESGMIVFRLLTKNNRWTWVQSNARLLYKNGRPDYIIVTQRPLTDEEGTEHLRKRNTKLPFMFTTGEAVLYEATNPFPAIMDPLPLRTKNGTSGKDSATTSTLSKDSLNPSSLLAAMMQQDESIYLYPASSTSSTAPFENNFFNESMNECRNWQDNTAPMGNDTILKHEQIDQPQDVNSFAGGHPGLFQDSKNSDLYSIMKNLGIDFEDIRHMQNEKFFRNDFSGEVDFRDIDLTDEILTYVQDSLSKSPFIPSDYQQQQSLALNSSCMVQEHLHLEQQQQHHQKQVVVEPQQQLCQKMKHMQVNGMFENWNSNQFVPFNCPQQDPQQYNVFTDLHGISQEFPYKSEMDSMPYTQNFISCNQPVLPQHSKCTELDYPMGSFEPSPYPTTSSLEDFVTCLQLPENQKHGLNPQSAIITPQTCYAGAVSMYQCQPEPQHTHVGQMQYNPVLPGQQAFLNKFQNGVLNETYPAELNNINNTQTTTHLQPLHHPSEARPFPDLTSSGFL", "details": "Potency"}, "[15]": {"target": "V-type proton ATPase subunit c' (Saccharomyces cerevisiae S288c, UniProt P32842)", "sequence (P32842 whole entry)": "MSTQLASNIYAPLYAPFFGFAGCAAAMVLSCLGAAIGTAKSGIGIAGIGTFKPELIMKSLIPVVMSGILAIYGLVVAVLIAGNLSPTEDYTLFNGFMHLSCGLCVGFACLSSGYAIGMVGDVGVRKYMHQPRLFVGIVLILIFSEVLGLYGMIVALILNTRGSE", "assay": "Dose Response of Small Molecules that Regulate V-ATPase Proton Transport in Yeast using pHLuorin, Cherry Pick 2.", "format": "functional", "details": "read-out: EC50_MICROM"}, "[16]": {"assay": "miR-122 activators in hepatoma reporter cells, dose response, cell-based, Huh7 psiCHECK-miR122, Renilla luciferase, cherry-picked (AID 651956);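 also: huh7 hepatoma cells stably carrying a psiCHECK-2 miR-122 sensor plasmid; renilla luciferase signal reporting endogenous miR-122 activity after 48 h compound exposure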", "format": "functional"}, "[17]": {"assay": "inhibitors of TNFa-stimulated NF-kB luciferase reporter, dose response, selectivity assay for EBV LMP1 NF-kB inhibitor project, HEK293 LMP1 reporter cells, dry powder, set 2 (AID 624369)", "format": "functional"}},
  "note": "Calls of active or inactive are those of the source.",
  "data": [
    {"smiles": "CCc1nnc(NC(=O)c2ccc(S(=O)(=O)N3CCCc4ccccc43)cc2)o1", "values": [
      {"measurement": "EC50", "setting": "Streptokinase A", "result": "> 150 µM (not active)"},
      {"measurement": "EC50", "setting": "[1]", "result": "1.21 µM (active)"},
      {"measurement": "EC50", "setting": "[2]", "result": "5.54 µM (active)"},
      {"measurement": "IC50", "setting": "[3]", "result": "4.33 µM (active)"},
      {"measurement": "EC50", "setting": "Streptococcus", "result": "13.3 µM (active)"},
      {"measurement": "EC50", "setting": "[4]", "result": "2.19 µM (active)"}
    ]},
    {"smiles": "Cc1ccc(N2C3=C(C(=O)CC(C)(C)C3)C(c3cn(C)nc3C)C3=C2CC(C)(C)CC3=O)cc1", "values": [
      {"measurement": "AC50", "setting": "Protein S100-A4", "result": "2.04 µM (active)"},
      {"measurement": "EC50", "setting": "Troponin, cardiac muscle", "result": "6.28 µM (active)"}
    ]},
    {"smiles": "Clc1ccccc1C1=Nn2c(nnc2-c2ccncc2)SC1", "values": [
      {"measurement": "IC50", "setting": "Interleukin-8", "result": "8.72 µM (active)"},
      {"measurement": "AC50", "setting": "[5]", "result": "3.15 µM (active)"},
      {"measurement": "AC50", "setting": "[6]", "result": "1.96 µM (active)"},
      {"measurement": "IC50", "setting": "[7]", "result": "22.6 µM (active)"},
      {"measurement": "AC50", "setting": "[8]", "result": "1.45 µM (active)"},
      {"measurement": "AC50", "setting": "HEK293", "result": "14.2 µM (active)"},
      {"measurement": "AC50", "setting": "[9]", "result": "1.83 µM (active)"},
      {"measurement": "AC50", "setting": "[10]", "result": "63.6 µM (active)"}
    ]},
    {"smiles": "O=C(Cn1c(/C=C/c2ccccc2)nc2ccccc21)Nc1ccc(F)cc1", "values": [
      {"measurement": "IC50", "setting": "[11]", "result": "12.2 µM (inactive)"},
      {"measurement": "IC50", "setting": "Coagulation factor XII", "result": "> 50 µM (inactive)"},
      {"measurement": "AC50", "setting": "HeLa", "result": "301 µM (active)"},
      {"measurement": "IC50", "setting": "[12]", "result": "8.74 µM (active)"},
      {"measurement": "IC50", "setting": "[13]", "result": "83.3 µM (inactive)"}
    ]},
    {"smiles": "CC(C)N1C(=O)c2ccccc2NS1(=O)=O", "note": "[BENTAZON]", "values": [
      {"measurement": "AC50", "setting": "[14]", "result": "79.4 µM (inconclusive)"}
    ]},
    {"smiles": "O=C1C=CC(=Nc2ccc3c(c2)Cc2cc(F)ccc2-3)O1", "values": [
      {"measurement": "EC50", "setting": "[15]", "result": "7.26 µM (active)"}
    ]},
    {"smiles": "C[C@H]1CN([C@@H](C)CO)C(=O)c2cc(C#Cc3ccccc3F)cnc2O[C@@H]1CN(C)C(=O)C1CCCCC1", "values": [
      {"measurement": "AC50", "setting": "[16]", "result": "0.565 µM (active)"},
      {"measurement": "AbsAC35", "setting": "[17]", "result": 66.69, "unit": "µM"}
    ]}
  ]
}
